≈ marks a conversion by molar mass, not a printed value. Like-named read-outs stand apart in the source and are kept apart here.
Columns and labels:
ATCC 12228 = assay: minimal inhibitory concentration, two-fold agar dilution; assay type: cell-based; conditions: Staphylococcus faecalis, ATCC12228, 20 h
Protocol: (§1) These NIC values were taken by employing a two-fold dilution method: that is, two-fold serial dilutions of each of the test compounds were made and dispersed in a Muller-Hinton agar medium; 2 μl of the standard test strain which had the 10^7 CFU (Colony Forming Unit) per ml was inoculated on the medium; and these were incubated at 37° C. for 20 hours.

[1] = system: Acinetobacter calcoaceticus ATCC 15473; assay: as above; assay type: cell-based; conditions: ATCC15473, Muller-Hinton agar, 37° C., 20 hours
Protocol: as §1

[2] = system: Bacillus cereus ATCC 11778; assay: as above; assay type: cell-based
Protocol: as §1

[3] = system: Bacillus megaterium ATCC 9885; assay: as above; assay type: cell-based; conditions: Priestia megaterium
Protocol: as §1

[4] = system: Citrobacter freundii ATCC 8090; assay: as above; assay type: cell-based; conditions: ATCC8090, Muller-Hinton agar, 37° C., 20 hours
Protocol: as §1

[5] = system: Enterobacter aerogenes ATCC 29751; assay: as above; assay type: cell-based; conditions: Klebsiella aerogenes
Protocol: as §1

[6] = system: Enterobacter cloacae ATCC 27508; assay: as above; assay type: cell-based; conditions: ATCC27508, Muller-Hinton agar, 37° C., 20 hours
Protocol: as §1

[7] = system: Klebsiella pneumoniae ATCC 10031; assay: as above; assay type: cell-based; conditions: ATCC10031, Muller-Hinton agar, 37° C., 20 hours
Protocol: as §1

[8] = system: Micrococcus luteus ATCC 9341; assay: as above; assay type: cell-based; conditions: ATCC9341, Muller-Hinton agar, 37° C., 20 hours
Protocol: as §1

[9] = system: Morganella morganii ATCC 8076h; assay: as above; assay type: cell-based; conditions: ATCC8076H, 20 h
Protocol: as §1

[10] = system: Proteus mirabilis ATCC 25933; assay: as above; assay type: cell-based; conditions: ATCC25933, Muller-Hinton agar, 37° C., 20 hours
Protocol: as §1

[11] = system: Proteus vulgaris ATCC 6059; assay: as above; assay type: cell-based; conditions: ATCC6059, Muller-Hinton agar, 37° C., 20 hours
Protocol: as §1

[12] = system: Pseudomonas aeruginosa ATCC 25619; assay: as above; assay type: cell-based; conditions: ATCC25619, Muller-Hinton agar, 37° C., 20 hours
Protocol: as §1

[13] = system: Pseudomonas aerugionsa ATCC 10145; assay: as above; assay type: cell-based; conditions: ATCC10145, Muller-Hinton agar, 37° C., 20 hours
Protocol: as §1

[14] = system: Pseudomonas aerugionsa ATCC 27853; assay: as above; assay type: cell-based; conditions: ATCC27853, Muller-Hinton agar, 37° C., 20 hours
Protocol: as §1

[15] = system: Salmonella typhimurium ATCC 14028; assay: as above; assay type: cell-based; conditions: Salmonella enterica, Muller-Hinton agar, 37° C., 20 hours
Protocol: as §1

[16] = system: Serratia marcescens ATCC 27117; assay: as above; assay type: cell-based; conditions: ATCC27117, Muller-Hinton agar, 37° C., 20 hours
Protocol: as §1

[17] = system: Shigella flexneri ATCC 11836; assay: as above; assay type: cell-based; conditions: ATCC11836, Muller-Hinton agar, 37° C., 20 hours
Protocol: as §1

[18] = system: Shigella sonnei ATCC 11060; assay: as above; assay type: cell-based; conditions: ATCC11060, Muller-Hinton agar, 37° C., 20 hours
Protocol: as §1

[19] = system: Staphylococcus aureus ATCC 6638p; assay: as above; assay type: cell-based; conditions: ATCC6638P, 20 h
Protocol: as §1

[20] = system: Staphylococcus epidermidis ATCC 10537; assay: as above; assay type: cell-based; conditions: ATCC10537, Muller-Hinton agar, 37° C., 20 hours
Protocol: as §1

[21] = system: Streptococcus faecalis ATCC 29212; assay: as above; assay type: cell-based; conditions: Enterococcus faecalis, ATCC29212, Muller-Hinton agar, 37° C., 20 hours
Protocol: as §1

[22] = in vivo absorbency test (plasma concentration, pharmacokinetic parameters); design: species or system SD rats (male); conditions: rat, in vivo, iv, 20 mg/kg
Protocol: In addition to the in vitro tests described above, in vivo absorbency tests for the two selected compounds of formulas (I-S-1) and (I-R-1), along with Ceftadizime, were carried out by administering intravenously, in a dose of 20 mg/kg, each of these two compounds into SD rats (male) weighing 220 to 340 g; […], which were analyzed by employing the bio-assay or agar well method. About 10 to 15 rats were used for each of the compounds.
Notes: (1) Two-Compartment Model
(3) Tested Animal: Rats(male; 220-340 g)

[23] = system: Escherichia coli ATCC 10536; assay: minimal inhibitory concentration, two-fold agar dilution; assay type: cell-based; conditions: ATCC10536, Muller-Hinton agar, 37° C., 20 hours
Protocol: as §1

[24] = system: Escherichia coli ATCC 25922; assay: as above; assay type: cell-based; conditions: ATCC25922, Muller-Hinton agar, 37° C., 20 hours
Protocol: as §1

[25] = system: Providencia rettgeri ATCC 9250; assay: as above; assay type: cell-based; conditions: ATCC9250, Muller-Hinton agar, 37° C., 20 hours
Protocol: as §1

[26] = acute toxicity test, intravenous; conditions: mouse, in vivo, ICR mice, observed for 14 days
Excerpt: The results are shown in the last row of Table 2.

[27] = Bacillus cereus, ATCC11778, 20 h

Structure (SMILES)	MIC (ATCC 12228)	MIC [1]	MIC [2, 27]	MIC ([3]; ATCC9885, 20 h)	MIC [4]	MIC [6]	MIC [7]	MIC [8]	MIC [10]	MIC [11]	MIC [12]	MIC [13]	MIC [14]	MIC [15]	MIC [16]	MIC [17]	MIC [18]	MIC [19]	MIC [20]	MIC [21]	also measured
CC(C)(O/N=C(\C(=O)N[C@@H]1C(=O)N2C(C(=O)[O-])=C(C[n+]3ccccc3)CS[C@H]12)c1csc(N)n1)C(=O)O [CTZ, Ceftazidime, reference compound]	4 µg/mL (≈ 7.32 µM)	4 µg/mL (≈ 7.32 µM)	128 µg/mL (≈ 234 µM)	0.25 µg/mL (≈ 0.457 µM)	0.13 µg/mL (≈ 0.238 µM)	0.031 µg/mL (≈ 0.0567 µM)	0.063 µg/mL (≈ 0.115 µM)	0.5 µg/mL (≈ 0.915 µM)	0.063 µg/mL (≈ 0.115 µM)	0.063 µg/mL (≈ 0.115 µM)	1 µg/mL (≈ 1.83 µM)	2 µg/mL (≈ 3.66 µM)	1 µg/mL (≈ 1.83 µM)	0.25 µg/mL (≈ 0.457 µM)	0.25 µg/mL (≈ 0.457 µM)	0.063 µg/mL (≈ 0.115 µM)	0.13 µg/mL (≈ 0.238 µM)	16 µg/mL (≈ 29.3 µM)	8 µg/mL (≈ 14.6 µM)	> 128 µg/mL	MIC ([5]; ATCC29751, 20 h): 4 µg/mL (≈ 7.32 µM); MIC [9]: ≤ 0.008 µg/mL; AUC [22]: 28100 ng·h/mL; concentration at 10 min [22]: 50000 ng/mL
C[C@H](O/N=C(\C(=O)NC1C(=O)N2C(C(=O)[O-])=C(CSc3nc(N)cc(N)[n+]3C)CS[C@H]12)c1csc(N)n1)C(=O)O (stereo partly drawn) [I-S-2, 7-[(Z)-2-(2-aminothiazol-4-yl)-2-[(S)-1-carboxyeth-1-oxyimino]acetamido]-3-[(4,6-diamino-1-methylpyrimidinium-2-yl)thiomethyl]-3-cephem-4-carboxylate]	1 µg/mL (≈ 1.64 µM)	2 µg/mL (≈ 3.28 µM)	32 µg/mL (≈ 52.5 µM)	0.25 µg/mL (≈ 0.41 µM)	0.016 µg/mL (≈ 0.0262 µM)	≤ 0.008 µg/mL	0.016 µg/mL (≈ 0.0262 µM)	0.13 µg/mL (≈ 0.213 µM)	0.016 µg/mL (≈ 0.0262 µM)	0.016 µg/mL (≈ 0.0262 µM)	1 µg/mL (≈ 1.64 µM)	1 µg/mL (≈ 1.64 µM)	0.5 µg/mL (≈ 0.82 µM)	0.13 µg/mL (≈ 0.213 µM)	0.031 µg/mL (≈ 0.0508 µM)	≤ 0.008 µg/mL	0.031 µg/mL (≈ 0.0508 µM)	2 µg/mL (≈ 3.28 µM)	1 µg/mL (≈ 1.64 µM)	> 128 µg/mL	MIC ([5]; ATCC29751, 20 h): 0.5 µg/mL (≈ 0.82 µM); MIC [23]: 0.031 µg/mL (≈ 0.0508 µM); MIC [24]: 0.016 µg/mL (≈ 0.0262 µM); MIC [25]: ≤ 0.008 µg/mL; LD50 at 336 h [26]: > 3000 mg/kg
Cc1c(N)nc(SCC2=C(C(=O)[O-])N3C(=O)C(NC(=O)/C(=N\O[C@@H](C)C(=O)O)c4csc(N)n4)[C@H]3SC2)[n+](N)c1N (stereo partly drawn) [I-S-7, 7-[(Z)-2-(2-aminothiazol-4-yl)-2-[(S)-1-carboxyeth-1-oxyimino]acetamido]-3-[(5-methyl-1,4,6-triaminopyrimidinium-2-yl)thiomethyl]-3-cephem-4-carboxylate]	1 µg/mL (≈ 1.6 µM)	2 µg/mL (≈ 3.2 µM)	–	–	0.016 µg/mL (≈ 0.0256 µM)	≤ 0.008 µg/mL	0.016 µg/mL (≈ 0.0256 µM)	0.25 µg/mL (≈ 0.4 µM)	0.016 µg/mL (≈ 0.0256 µM)	0.016 µg/mL (≈ 0.0256 µM)	0.5 µg/mL (≈ 0.8 µM)	1 µg/mL (≈ 1.6 µM)	0.5 µg/mL (≈ 0.8 µM)	0.063 µg/mL (≈ 0.101 µM)	0.063 µg/mL (≈ 0.101 µM)	0.016 µg/mL (≈ 0.0256 µM)	0.031 µg/mL (≈ 0.0496 µM)	4 µg/mL (≈ 6.4 µM)	2 µg/mL (≈ 3.2 µM)	> 128 µg/mL	MIC ([2]; ATCC11778, Bacillus cereus ATCC 11778, Muller-Hinton agar, 37° C., 20 hours, read-out: MIC): 84 µg/mL (≈ 134 µM); MIC ([3]; ATCC9885, Bacillus megaterium ATCC 9885, Muller-Hinton agar, 37° C., 20 hours, read-out: MIC): 26 µg/mL (≈ 41.6 µM); MIC ([5]; ATCC29751, Enterobacter aerogenes ATCC 29751, Muller-Hinton agar, 37° C., 20 hours, read-out: MIC): 0.15 µg/mL (≈ 0.24 µM); MIC [23]: 0.031 µg/mL (≈ 0.0496 µM); MIC [24]: 0.016 µg/mL (≈ 0.0256 µM); MIC [25]: ≤ 0.008 µg/mL; LD50 at 336 h [26]: > 5000 mg/kg

— patent US5462935A, “Cephalosporin compounds” (Lucky Limited, priority 1990, dated 1995)
